Results: BindingDB's records for doi:10.1021/bi301387m (University of Auckland, 2013)

Molecular target: T1, Anthranilate phosphoribosyltransferase (Mycobacterium tuberculosis (strain CDC 1551 / Oshkosh), UniProt P9WFX4)
T1 sequence (P9WFX4 whole entry): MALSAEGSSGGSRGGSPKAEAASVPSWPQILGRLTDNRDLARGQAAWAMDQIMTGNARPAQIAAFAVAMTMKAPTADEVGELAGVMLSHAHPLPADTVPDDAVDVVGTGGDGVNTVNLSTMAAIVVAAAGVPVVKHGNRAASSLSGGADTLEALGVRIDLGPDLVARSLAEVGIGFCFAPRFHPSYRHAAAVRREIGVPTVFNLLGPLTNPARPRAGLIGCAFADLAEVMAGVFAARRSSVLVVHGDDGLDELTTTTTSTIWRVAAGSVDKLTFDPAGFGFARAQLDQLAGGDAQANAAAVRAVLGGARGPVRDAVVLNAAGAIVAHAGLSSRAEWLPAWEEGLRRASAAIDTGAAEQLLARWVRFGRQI
Experiment: Fluoresence-based Assay
Description: An enzyme-coupled absorbance-based assay developed in house was used to determine the inhibitor-enzyme kinetic parameters of Mtb-AnPRT, including ki values for the inhibitors.

SMILES	Ki [µM]
NC(CCCNc1ccc([N+](=O)[O-])cc1[N+](=O)[O-])CC(=O)O (configuration not stated) [ACS No 165]	79
COc1ccc(C(=O)O)cc1N [ACS No 126]	60
